# Assay results from PubChem BioAssay (NCI).
# Where “and” joins values, the source holds several entries; their conditions need not be identical. Equal entries are not always repeated.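 Step 1: Grow cells in 96-well plates. Step 2: Expose to compound for 48 hours at 5 concentrations. Step 3: Interpolate endpoints linearly; if unreached, use highest concentration. Here, GI50 denotes the concentration required for 50% inhibition of growth. TGI: total growth inhibition.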
# Tests used:
# Assay in all cases: growth of human tumour cells (NCI), 48 h
# M19-MEL melanoma = tested on: M19-MEL melanoma
# CAKI-1 renal = tested on: CAKI-1 renal
# NCI-H23 lung = tested on: NCI-H23 lung
# 786-0 renal = tested on: 786-0 renal
# LOX IMVI melanoma = tested on: LOX IMVI melanoma
# A498 renal = tested on: A498 renal
# SNB-78 CNS = tested on: SNB-78 CNS
# TK-10 renal = tested on: TK-10 renal
# DMS 114 small cell lung = tested on: DMS 114 small cell lung
# HT29 colon = tested on: HT29 colon
# UO-31 renal = tested on: UO-31 renal
# SF-539 CNS = tested on: SF-539 CNS
# IGROV1 ovarian = tested on: IGROV1 ovarian
# HCT-116 colon = tested on: HCT-116 colon
# U251 CNS = tested on: U251 CNS
# KM12 colon = tested on: KM12 colon
# HL-60(TB) leukemia = tested on: HL-60(TB) leukemia
# ACHN renal = tested on: ACHN renal
# OVCAR-8 ovarian = tested on: OVCAR-8 ovarian
# SK-OV-3 ovarian = tested on: SK-OV-3 ovarian
# RPMI-8226 leukemia = tested on: RPMI-8226 leukemia
# NCI-H522 lung = tested on: NCI-H522 lung
# DLD-1 colon = tested on: DLD-1 colon
# OVCAR-4 ovarian = tested on: OVCAR-4 ovarian
# SF-295 CNS = tested on: SF-295 CNS
# KM20L2 colon = tested on: KM20L2 colon
# A549 NSCLC = tested on: A549 NSCLC
# CCRF-CEM leukemia = tested on: CCRF-CEM leukemia
# COLO 205 colon = tested on: COLO 205 colon
# DMS 273 small cell lung = tested on: DMS 273 small cell lung
# K-562 leukemia = tested on: K-562 leukemia
# SN12C renal = tested on: SN12C renal
# LXFL 529 NSCLC = tested on: LXFL 529 NSCLC
# HCC-2998 colon = tested on: HCC-2998 colon
# EKVX NSCLC = tested on: EKVX NSCLC
# XF 498 CNS = tested on: XF 498 CNS
# MALME-3M melanoma = tested on: MALME-3M melanoma
# M14 melanoma = tested on: M14 melanoma
# SK-MEL-5 melanoma = tested on: SK-MEL-5 melanoma
# OVCAR-5 ovarian = tested on: OVCAR-5 ovarian
# SK-MEL-2 melanoma = tested on: SK-MEL-2 melanoma
# HCT-15 colon = tested on: HCT-15 colon
# SF-268 CNS = tested on: SF-268 CNS
# SR leukemia = tested on: SR leukemia
# HOP-18 NSCLC = tested on: HOP-18 NSCLC
# SK-MEL-28 melanoma = tested on: SK-MEL-28 melanoma
# NCI-H226 lung = tested on: NCI-H226 lung
# OVCAR-3 ovarian = tested on: OVCAR-3 ovarian
# MOLT-4 leukemia = tested on: MOLT-4 leukemia
# NCI-H460 lung = tested on: NCI-H460 lung
# UACC-257 melanoma = tested on: UACC-257 melanoma
# SNB-75 CNS = tested on: SNB-75 CNS
# RXF 393 renal = tested on: RXF 393 renal
# SNB-19 CNS = tested on: SNB-19 CNS
# SW-620 colon = tested on: SW-620 colon
# HOP-62 NSCLC = tested on: HOP-62 NSCLC
# UACC-62 melanoma = tested on: UACC-62 melanoma
# HOP-92 NSCLC = tested on: HOP-92 NSCLC
# RXF-631 renal = tested on: RXF-631 renal
structure (smiles),measurement,setting,value
CC(=O)OCC1OC(n2c(-c3ccccc3)cc(-c3ccco3)c(C#N)c2=O)C(OC(C)=O)C(OC(C)=O)C1OC(C)=O (configuration not stated),TGI,M19-MEL melanoma,> 100 µM
same,TGI,CAKI-1 renal,> 100 µM
same,TGI,NCI-H23 lung,> 100 µM
same,TGI,786-0 renal,> 100 µM
same,GI50,LOX IMVI melanoma,2.23 µM and 14.6 µM
same,TGI,LOX IMVI melanoma,> 100 µM
same,TGI,A498 renal,> 100 µM
same,TGI,SNB-78 CNS,> 100 µM
same,TGI,TK-10 renal,> 100 µM
same,TGI,DMS 114 small cell lung,> 100 µM
same,TGI,HT29 colon,> 100 µM
same,GI50,UO-31 renal,> 100 µM and 21.2 µM
same,TGI,UO-31 renal,> 100 µM and 67.6 µM
same,GI50,SF-539 CNS,16.3 µM and 84.6 µM
same,TGI,SF-539 CNS,> 100 µM
same,TGI,IGROV1 ovarian,> 100 µM
same,TGI,HCT-116 colon,> 100 µM
same,GI50,U251 CNS,98 µM and 17.8 µM
same,TGI,U251 CNS,> 100 µM
same,GI50,KM12 colon,75 µM and 36.5 µM
same,TGI,KM12 colon,> 100 µM
same,TGI,HL-60(TB) leukemia,> 100 µM
same,TGI,ACHN renal,> 100 µM
same,TGI,OVCAR-8 ovarian,> 100 µM
same,TGI,SK-OV-3 ovarian,> 100 µM
same,TGI,RPMI-8226 leukemia,> 100 µM
same,TGI,NCI-H522 lung,> 100 µM
same,GI50,DLD-1 colon,> 53.1 µM and 25.8 µM
same,TGI,DLD-1 colon,> 100 µM
same,TGI,OVCAR-4 ovarian,> 100 µM
same,TGI,SF-295 CNS,> 100 µM
same,GI50,KM20L2 colon,50.9 µM
same,TGI,KM20L2 colon,> 100 µM
same,TGI,A549 NSCLC,> 100 µM
same,TGI,CCRF-CEM leukemia,> 100 µM
same,GI50,COLO 205 colon,> 31.6 µM and 87 µM
same,TGI,COLO 205 colon,> 100 µM
same,TGI,DMS 273 small cell lung,> 100 µM
same,GI50,K-562 leukemia,> 68.8 µM and 9.04 µM
same,TGI,K-562 leukemia,> 100 µM
same,GI50,SN12C renal,77.2 µM and 23.5 µM
same,TGI,SN12C renal,> 100 µM
same,TGI,LXFL 529 NSCLC,> 100 µM
same,TGI,HCC-2998 colon,> 100 µM
same,TGI,EKVX NSCLC,> 100 µM
same,TGI,XF 498 CNS,43.7 µM
same,GI50,MALME-3M melanoma,23 µM and 85.9 µM
same,TGI,MALME-3M melanoma,> 100 µM
same,GI50,M14 melanoma,> 100 µM
same,TGI,M14 melanoma,> 100 µM
same,TGI,SK-MEL-5 melanoma,> 100 µM
same,TGI,OVCAR-5 ovarian,> 100 µM
same,TGI,SK-MEL-2 melanoma,36.9 µM and > 100 µM
same,GI50,HCT-15 colon,> 100 µM and 18.3 µM
same,TGI,HCT-15 colon,> 100 µM
same,GI50,SF-268 CNS,17.4 µM and 35 µM
same,TGI,SF-268 CNS,64.2 µM and > 100 µM
same,GI50,SR leukemia,> 100 µM and 46.1 µM
same,TGI,SR leukemia,> 100 µM
same,GI50,HOP-18 NSCLC,28.2 µM
same,TGI,HOP-18 NSCLC,78.1 µM
same,TGI,SK-MEL-28 melanoma,67 µM and > 100 µM
same,TGI,NCI-H226 lung,> 100 µM
same,TGI,OVCAR-3 ovarian,> 100 µM
same,TGI,MOLT-4 leukemia,> 100 µM
same,TGI,NCI-H460 lung,> 100 µM
same,TGI,UACC-257 melanoma,> 100 µM
same,GI50,SNB-75 CNS,13.3 µM and > 100 µM
same,TGI,SNB-75 CNS,40.9 µM and > 100 µM
same,TGI,RXF 393 renal,> 100 µM
same,GI50,SNB-19 CNS,90.5 µM and 36.3 µM
same,TGI,SNB-19 CNS,> 100 µM
same,TGI,SW-620 colon,> 100 µM
same,GI50,HOP-62 NSCLC,> 100 µM and 22.1 µM
same,TGI,HOP-62 NSCLC,> 100 µM and 65.4 µM
same,GI50,UACC-62 melanoma,23.3 µM and 55.8 µM
same,TGI,UACC-62 melanoma,> 100 µM
same,GI50,HOP-92 NSCLC,9.2 µM and 50.8 µM
same,TGI,HOP-92 NSCLC,21.8 µM and > 100 µM
CCC(=O)c1cn(C)c(=O)c2ccccc12,TGI,CAKI-1 renal,> 100 µM
same,TGI,NCI-H23 lung,> 100 µM
same,TGI,786-0 renal,> 100 µM
same,TGI,LOX IMVI melanoma,> 100 µM
same,TGI,SNB-78 CNS,> 100 µM
same,TGI,TK-10 renal,> 100 µM
same,TGI,DMS 114 small cell lung,> 100 µM
same,TGI,HT29 colon,> 100 µM
same,TGI,UO-31 renal,> 100 µM
same,TGI,SF-539 CNS,> 100 µM
same,TGI,IGROV1 ovarian,> 100 µM
same,TGI,U251 CNS,> 100 µM
same,TGI,KM12 colon,> 100 µM
same,TGI,HL-60(TB) leukemia,> 100 µM
same,TGI,ACHN renal,> 100 µM
same,TGI,OVCAR-8 ovarian,> 100 µM
same,TGI,SK-OV-3 ovarian,> 100 µM
same,TGI,RPMI-8226 leukemia,> 100 µM
same,TGI,NCI-H522 lung,> 100 µM
same,TGI,DLD-1 colon,> 100 µM
same,TGI,OVCAR-4 ovarian,> 100 µM
same,TGI,SF-295 CNS,> 100 µM
same,TGI,KM20L2 colon,> 100 µM
same,TGI,A549 NSCLC,> 100 µM
same,TGI,CCRF-CEM leukemia,> 100 µM
same,TGI,COLO 205 colon,> 100 µM
same,TGI,DMS 273 small cell lung,> 100 µM
same,TGI,K-562 leukemia,> 100 µM
same,TGI,SN12C renal,> 100 µM
same,TGI,LXFL 529 NSCLC,> 100 µM
same,TGI,HCC-2998 colon,> 100 µM
same,TGI,EKVX NSCLC,> 100 µM
same,TGI,XF 498 CNS,> 100 µM
same,TGI,MALME-3M melanoma,> 100 µM
same,TGI,M14 melanoma,> 100 µM
same,TGI,SK-MEL-5 melanoma,> 100 µM
same,TGI,OVCAR-5 ovarian,> 100 µM
same,TGI,SK-MEL-2 melanoma,> 100 µM
same,TGI,HCT-15 colon,> 100 µM
same,TGI,RXF-631 renal,> 100 µM
same,TGI,SF-268 CNS,> 100 µM
same,TGI,SR leukemia,> 100 µM
same,TGI,SK-MEL-28 melanoma,> 100 µM
same,TGI,NCI-H226 lung,> 100 µM
same,TGI,OVCAR-3 ovarian,> 100 µM
same,TGI,MOLT-4 leukemia,> 100 µM
same,TGI,NCI-H460 lung,> 100 µM
same,TGI,UACC-257 melanoma,> 100 µM
same,TGI,SNB-75 CNS,> 100 µM
same,TGI,RXF 393 renal,> 100 µM
same,TGI,SNB-19 CNS,> 100 µM
same,TGI,SW-620 colon,> 100 µM
same,TGI,HOP-62 NSCLC,> 100 µM
same,TGI,UACC-62 melanoma,> 100 µM
same,TGI,HOP-92 NSCLC,> 100 µM
O=[As](O)(O)c1cc(N=Nc2ccc(-c3ccc(N=Nc4cc([As](=O)(O)O)c(O)cc4O)cc3)cc2)c(O)cc1O,TGI,M19-MEL melanoma,> 100 µM
same,TGI,CAKI-1 renal,> 100 µM
same,TGI,NCI-H23 lung,> 100 µM
same,TGI,786-0 renal,> 100 µM
same,TGI,LOX IMVI melanoma,> 100 µM
same,TGI,A498 renal,> 73.4 µM
same,TGI,SNB-78 CNS,> 100 µM
same,TGI,TK-10 renal,> 100 µM
same,TGI,DMS 114 small cell lung,> 100 µM
same,TGI,HT29 colon,> 100 µM
same,TGI,UO-31 renal,> 100 µM
same,TGI,SF-539 CNS,> 100 µM
same,TGI,IGROV1 ovarian,> 100 µM
same,TGI,HCT-116 colon,> 100 µM
same,TGI,U251 CNS,> 100 µM
same,TGI,KM12 colon,> 100 µM
same,TGI,HL-60(TB) leukemia,> 67.6 µM
same,TGI,ACHN renal,> 100 µM
same,TGI,OVCAR-8 ovarian,> 100 µM
same,TGI,SK-OV-3 ovarian,> 100 µM
same,TGI,RPMI-8226 leukemia,> 100 µM
same,TGI,NCI-H522 lung,> 100 µM
same,TGI,DLD-1 colon,> 59.2 µM
same,TGI,OVCAR-4 ovarian,> 56.8 µM
same,TGI,SF-295 CNS,> 100 µM
same,TGI,KM20L2 colon,> 100 µM
same,TGI,A549 NSCLC,> 100 µM
same,TGI,CCRF-CEM leukemia,> 80 µM
same,TGI,COLO 205 colon,> 100 µM
same,TGI,DMS 273 small cell lung,> 100 µM
same,TGI,K-562 leukemia,> 100 µM
same,TGI,SN12C renal,> 100 µM
same,TGI,LXFL 529 NSCLC,> 100 µM
same,TGI,HCC-2998 colon,> 100 µM
same,TGI,EKVX NSCLC,> 100 µM
same,TGI,MALME-3M melanoma,> 100 µM
same,TGI,M14 melanoma,> 100 µM
same,TGI,SK-MEL-5 melanoma,> 100 µM
same,TGI,OVCAR-5 ovarian,97.6 µM
same,TGI,SK-MEL-2 melanoma,> 100 µM
same,TGI,HCT-15 colon,> 100 µM
same,TGI,RXF-631 renal,> 100 µM
same,TGI,SF-268 CNS,> 100 µM
same,TGI,SR leukemia,> 100 µM
same,TGI,HOP-18 NSCLC,> 100 µM
same,TGI,SK-MEL-28 melanoma,> 100 µM
same,TGI,NCI-H226 lung,> 100 µM
same,TGI,OVCAR-3 ovarian,> 78.4 µM
same,TGI,MOLT-4 leukemia,> 100 µM
same,TGI,NCI-H460 lung,> 100 µM
same,TGI,UACC-257 melanoma,> 100 µM
same,TGI,SNB-75 CNS,> 100 µM
same,TGI,RXF 393 renal,> 100 µM
same,TGI,SNB-19 CNS,> 100 µM
same,TGI,SW-620 colon,> 100 µM
same,TGI,HOP-62 NSCLC,> 100 µM
same,TGI,UACC-62 melanoma,> 100 µM
same,TGI,HOP-92 NSCLC,> 100 µM
